Measurements taken from US20100069326A1, “Combination Therapies to Treat Cardio- and Cerebro-Vascular Disorders” (priority 2008, published 2010).
Like-named read-outs stand apart in the source and are kept apart here.

Tests used:
[1] = system: rat middle cerebral artery occlusion (MCAO) model of stroke; details: cited from earlier work; for reducing infarct size (in words): dose of 30 mg/kg, triflusal versus aspirin
[2] = system: cAMP phosphodiesterase; details: compared with aspirin; cited from earlier work
[3] = system: Male Wistar rats with unilateral MCAO (cerebral ischemia); test: Rat stroke model (permanent MCA occlusion), infarct volume assessment; type: in vivo; details: triflusal 30 mg/kg alone, 3 days after unilateral MCAO; for Infarct volume: three days, mean±SEM
Protocol: Male Wistar rats (265-360 g) were randomly divided into four treatment groups (n=5-9 for each group). Prior to and following surgery rats were housed in single cages (12/12 h light/dark cycle) and were fed at libitum. Prior to surgery, all rats were anaesthetized with a single dose of sodium pentobarbital (60 mg/kg ip) and placed in a David Kopf stereotaxic apparatus. Rectal temperatures were monitored and maintained constant at 37° C. by a heating pad while the rats were under anesthesia. The right MCA was exposed. […] Removal of a portion of the bone and exposure and ligation of the MCA was done with the aid of an operating stereomicroscope. Immediately following surgery, rats received one of the following treatments: 30 mg/kg triflusal or 30 mg/kg triflusal and 200 mg/kg dipyridamole or 10 mg/kg triflusal and 200 mg/kg dipyridamole or vehicle only for next three days. Three days after surgery, all animals were euthanized via pentobarbital overdose and perfused transaortically first with saline which was immediately followed by a low perfusion for about 1 h with 2% solution of triphenyl-tetrazolium chloride (TTC) that is followed by 4% formaldehyde (pH 7.4). The brains were removed and coronal sections (1 mm) were cut for infarct measurement. Investigator was blind to the sample treatment. Serial brain sections were examined and the areas of infarcted tissue were measured (SigmaScan […].0, SPSS Inc., Chicago Ill., USA). In addition, the hemispheric areas of each tissue section were measured to account for any brain swelling that might have occurred following cerebral ischemia. The volume of the infarct was calculated in mm^3 by integrating the infarct sizes for each of the tissue sections that contained infarcted tissue. The 1 mm sections were photographed using a Nikon digital camera. Results are expressed as mean±SEM of each measure. The volumes of the infarcts for each of the groups were compared by Student's unpaired two-tailed t tests. Significance was set at p≦0.05. Correlations between parameters were tested by linear regression analysis

| Compound | reducing infarct size (in words) [1] | potency as inhibitor of cAMP phosphodiesterase relative to aspirin [2] | Infarct volume [3] [mm^3] | Infarct volume ([3]; listed as triflusal) [mm^3] | Infarct reduction ([3]; vs vehicle) [%] | infarct reduction in the MCAO model ([1]; triflusal 10 mg/kg/day, not significant neuroprotection) [%] | infarct reduction in the MCAO model ([1]; triflusal 30 mg/kg/day, significant neuroprotection) [%] |
| --- | --- | --- | --- | --- | --- | --- | --- |
| CC(=O)Oc1ccccc1C(=O)O [aspirin] | equally effective | – | – | – | – | – | – |
| CC(=O)Oc1cc(C(F)(F)F)ccc1C(=O)O [Triflusal, 2-acetoxy-4-trifluoromethylbenzoic acid] | equally effective | five times more potent | 73.59 ± 7.0 | 73.59±7.0 | 30.72 ± 6.6 | 12.56 | 43.95 |
